Test results published in BigSolDB 2.1.

COc1cc(/C=C/C(=O)CC(=O)/C=C/c2ccc(O)c(OC)c2)ccc1O
solubility (mole fraction)
Details	278.15 K	283.15 K	288.15 K	293.15 K	298.15 K	303.15 K	308.15 K	313.15 K	318.15 K
in ethanol	0.000407	0.000497	0.000573	0.000662	0.000769	0.000888	0.00101	0.00113	0.00128
in isopropanol	0.00146	0.0017	0.00194	0.00219	0.00252	0.00284	0.00317	0.00357	0.004
in n-propanol	0.0023	0.0026	0.00291	0.00325	0.0036	0.00401	0.00437	0.00484	0.00526
in propylene glycol	0.000715	0.000827	0.000967	0.0011	0.00126	0.00143	0.00161	0.00182	0.00206
in water	8.34e-09	1.16e-08	1.59e-08	2.15e-08	2.94e-08	4.03e-08	5.38e-08	7.06e-08	9.32e-08
